Assays:
Format in all cases: cell-based
[1] = system: A2185 and A2352 cells; assay: Viability assay (methylene blue), two BRAF melanoma cells; conditions: for viability at 10 µM / cell viability (percentage of DMSO control): active below 40%, moderate below 80%, not active above 80%; for viability at 10 µM: read-out: cell viability (percentage of DMSO control); for activity in SAR summary of FIGS. 10A-10C (cell viability): comparison with Compound Z2 or named analog; for cell viability at lower concentration: 3 μM; for cell viability, dose response: 0.1-10 μM
Procedure: FIGS. 10A, 10B and 10C present data from screening the 20 analogs of Compound Z2 (“C-compounds”) showing three particularly active anti-proliferative compounds. […] A2185 and A2352 cells were grown in 1% FCS containing DMSO (0.1%), EPE peptide, Compound Z56, Compound Z2 or C-compounds (10 μM), for 72 hours. Compounds were categorized according to activity: (1) active, below 40%; (2) moderate activity, below 80%; (3) not active, above 80%. […] A2185 and A2352 cells were grown in 1% FCS containing DMSO (0.1%), EPE peptide (10 μM), compounds Z56, Z2 or selected C-compounds (3 μM), for 72 hours. Empty squares/circles represent individual data points of proliferation. Full squares/circles indicate average proliferation of 2 independent experiments in triplicate±SE. Bold horizontal line defines arbitrary activity threshold of activity below 40%. FIG. 10C presents dose response curves of active C-compounds compounds. A2185 and A2352 were grown in 1% FCS media containing DMSO (0.1%), EPE peptide, Z56, Z2 (10 μM) or compounds C17, C22 and C23 (0.1-10 μM), for 72 hours. […] Cell viability was measured by staining with methylene blue. Data presented as percentage of DMSO control. Bar graphs represent average of 2 independent experiments done in triplicates ±SE.
FIG. 13 presents a graph showing the effect of analogs of Compound C17 (“D-compounds”) on cell viability at a concentration of 10 μM. A2185 and A2352 cells were grown in 1% FCS media containing DMSO (0.1%) EPE peptide (10 μM), Compounds Z56, Z2, C17 (10 μM) as controls, and D-Compounds (10 μM), for 72 hours. Viable cells were measured by staining with methylene blue. Bar graphs represent average of 2 independent experiments done in triplicates. Data presented as percentage of DMSO proliferation ±standard error.
FIG. 14 presents a graph showing the effect of analogs of Compound C17 (“D-compounds”) on cell viability at a concentration of 1 μM. A2185 and A2352 cells were grown in 1% FCS media containing DMSO (0.1%), EPE peptide (10 μM), Compounds Z56, Z2 and C17 (1 and 10 μM) as controls, and D-compounds (1 μM), for 72 hours. Viable cells were measured by staining with methylene blue. Bar graphs represent average of 2 independent experiments done in triplicates. Data presented as percentage of DMSO proliferation ±standard error.
(§1) Cells were seeded at low confluence into 24, 48 or 96-well plates in complete medium. After 24 hours, medium was replaced by 1% FCS (fetal calf serum) containing appropriate treatments. Fresh medium containing the same agents was replaced every day. After 72 or 96 hours of treatment, cells were fixed with 4% formaldehyde overnight at 23° C., washed once with 0.1 M borate buffer (pH 8.5) for 10 minutes, and stained with of 1% methylene blue in 0.1 M borate buffer (pH 8.5) for 30 minutes. Excess stain was washed out with distilled water. Color was extracted by adding 0.1 M HCl (3 hours, 23° C.), and absorbance measured at 595 nm in an ELISA reader. For time course experiments, attached cells were fixed and measured at 0, 24, 48, 72 and 96 hours. For dose-response experiments, cells were treated with indicated concentrations of reagent, fixed and stained after 72 hours as above.
The ability of the selected compounds to reduce cell viability of two BRAF melanoma cells (A2185 and A2352) was evaluated. Initially, all compounds were assayed at a relatively high concentration of 10 μM.

[2] = system: ERK1/2 nuclear translocation; assay: Determination of ERK1/2 localization by fluorescence microscopy after TPA stimulation; conditions: 10 μM, 2 hours; TPA 100 nM, 15 minutes; A2185 and A2352 cells
Procedure: Determination of Protein Localization by Fluorescence Microscopy:
Indicated cells were seeded on coverslips (coated with 0.001% w/v poly-L-lysine or not, depending on the cell line) at 50% confluency. After the indicated treatment, cells were fixed in 4% paraformaldehyde/PBS for 20 minutes on an ice surface, permeabilized with 0.1% Triton X-100/PBS for 5 minutes at 23° C., then blocked in 2% BSA/PBS for 30 minutes at 23° C. The fixed cells were sequentially incubated with appropriate antibodies (in 2% BSA/PBS, 1.5 hour), washed 3 times with PBS^−/−, and followed by incubation with either Cy-2-conjugated or rhodamine-conjugated secondary antibodies (1:200) and with DAPI ([…]; 1:100) in 2% BSA/PBS for 45 minutes. Slides were analyzed and photographed by a fluorescence microscope (Olympus BX51, ×40). Background correction, and contrast adjustment of raw data images were performed using Photoshop (Adobe, CA, USA).
The effect of Z56 was compared with that of the inhibitory effect of EPE peptide on nuclear translocation of ERK1/2.
The effects of the compounds on ERK1/2 nuclear translocation were evaluated in three cell lines (HeLa cells and two melanoma cell lines, A2185 and A2352), by treating the cells with each compound for two hours, and determining nuclear translocation using fluorescent anti-ERK antibodies, according to procedures described hereinabove.

[3] = system: Panc-1, AsPC-1, CFPAC-1, MIA PaCa-2, Capan-1, Capan-2 and BxPC-3 pancreatic cancer cells; assay: Viability assay (methylene blue), pancreatic cancer cell lines
Procedure: FIGS. 6A and 6B present data showing that Compound Z56 prevents proliferation of pancreatic cancer cells. […] Panc-1, AsPC-1, CFPAC-1, Mia PaCa-2, Capan-1, Capan-2 (Ras-transformed) and BxPC-3 (Ras-wild type) pancreatic cancer cells were treated with either EPE peptide (10 μM; middle bars) or Z56 (3 μM; right bars) or DMSO control (0.1%; left bars) in 1% FCS for 72 hours. […] Panc-1, AsPC-1, BxPC-3 and Mia PaCa-2 cells grown in 1% FCS medium containing either EPE peptide (10 μM), 56 (3 μM), PLX4032 (1 μM), PD184352 (5 μM) or DMSO control (0.1%). The graphs present the kinetics of cell proliferation at the indicated times after the treatment started. Quantification of all viable cells was done by methylene blue and repeated 3 times in triplicates. All results presented as a fold change of the initial cell number and represent averages ±SE.
as §1
Activating mutations in Ras are found in more than 95% of pancreatic cancers where signaling through both Raf and Akt pathway drives cancer progression [Campbell et al., Cancer Res 2007, 67:2098-2106]. However, no effective treatments that target this mutant protein have reached the clinic to date, and pancreatic ductal adenocarcinoma remains an almost universally fatal disease [Bryant et al., Trends Biochem Sci 2014, 39:91-100]. Therefore, treating these pancreatic cancer cells downstream of Ras, without overactivating the Akt pathway, should be at least partially beneficial. The effect of Compound Z56 (and EPE peptide) on cell viability of Ras-transformed (and Ras-wild type) pancreatic cancer cells was determined, using a variety of cell lines.
The effects of Compound Z56 on the viability of pancreatic cancer cell lines at various times after treatment was compared with those of PLX4032 (a B-Raf inhibitor) and PD184352 (a MEK1/2 inhibitor).

Row | Compound | activity in SAR summary of FIGS. 10A-10C (cell viability) [1] | cell viability (percentage of DMSO control) ([1]; 10 μM, 72 hours, 1% FCS) | further results
1 | CCOC(=O)c1ccc(NC2C=CS(=O)(=O)C2)cc1 (stereo not drawn) [Compound C1] | lower activity (relative to Compound Z2) |  | viability at 10 µM ([1]; 10 μM, 72 hours, 1% FCS): < 40%
2 | O=C(NC1C=CS(=O)(=O)C1)c1ccccc1 (stereo not drawn) [Compound C2] | less active |  | viability at 10 µM ([1]; 10 μM, 72 hours, 1% FCS): < 80%
3 | O=C(CCc1ccccc1)OC1C=CS(=O)(=O)C1 (stereo not drawn) [Compound C3] |  |  | viability at 10 µM ([1]; 10 μM, 72 hours, 1% FCS): < 80%
4 | O=S1(=O)C=CC(O)C1 (stereo not drawn) [Compound C4] |  | did not exhibit significant activity | 
5 | O=S1(=O)CCC(Oc2ccccc2)C1 (stereo not drawn) [Compound C5] |  |  | viability at 10 µM ([1]; 10 μM, 72 hours, 1% FCS): < 80%
6 | O=S1(=O)C=CC2ON=C(c3cc(Cl)cc(Cl)c3)C21 (stereo not drawn) [Compound C6] | inactive | did not exhibit significant activity | 
7 | O=S1(=O)CCC(OCc2ccccc2)C1 (stereo not drawn) [Compound C8] | less active | did not exhibit significant activity | 
8 | Cc1ccc(C(=O)OC2CCS(=O)(=O)C2)cc1 (stereo not drawn) [Compound C11] | inactive | did not exhibit significant activity | 
9 | O=C(Nc1ccccc1)OC1C=CS(=O)(=O)C1 (stereo not drawn) [Compound C12] | less active | did not exhibit significant activity | 
10 | CC(C)OC(=O)c1ccc(NC(=O)CC2C=CS(=O)(=O)C2)cc1 (stereo not drawn) [Compound C14] | lower activity (relative to Compound Z2) | did not exhibit significant activity | 
11 | O=C(OC1CCCS(=O)(=O)C1)c1ccc(F)cc1 (stereo not drawn) [Compound C15] | inactive | did not exhibit significant activity | 
12 | O=C(OC1CCS(=O)(=O)C1)c1ccnc(OCc2ccccc2)c1 (stereo not drawn) [Compound C16] |  | did not exhibit significant activity | 
13 | CS(=O)(=O)CCOC(=O)c1cccc(Br)c1 [Compound C19] | inactive | did not exhibit significant activity | 
14 | Cc1ccccc1OC1CCS(=O)(=O)C1 (stereo not drawn) [Compound C20] | lower activity (relative to Compound Z2) | did not exhibit significant activity | 
15 | Cc1ccc(OC2CCS(=O)(=O)C2)cc1 (stereo not drawn) [Compound C21] | lower activity (relative to Compound Z2) | did not exhibit significant activity | 
16 | O=C(OC1CS(=O)(=O)CC1Br)c1ccccc1 (stereo not drawn) [Compound C22] | far more active than Compound C6 |  | cell viability at lower concentration ([1]; 72 hours, 1% FCS): at least as potent as Compound Z2; viability at 10 µM ([1]; 10 μM, 72 hours, 1% FCS): < 40%; cell viability, dose response ([1]; 72 hours, 1% FCS): dose dependent manner; nuclear accumulation of ERK1/2 upon TPA stimulation [2]: inhibited
17 | O=S1(=O)C=CC2ON=C(c3c(Cl)cccc3Cl)C21 (stereo not drawn) [Compound C23] |  |  | cell viability at lower concentration ([1]; 72 hours, 1% FCS): at least as potent as Compound Z2; viability at 10 µM ([1]; 10 μM, 72 hours, 1% FCS): < 40%; cell viability, dose response ([1]; 72 hours, 1% FCS): dose dependent manner; nuclear accumulation of ERK1/2 upon TPA stimulation [2]: inhibited
18 | O=C(OC1CCCS(=O)(=O)C1)c1ccccc1F (stereo not drawn) [Compound C31] | inactive | did not exhibit significant activity | 
19 | Cn1ccc2c(C(=O)OC3CCS(=O)(=O)C3)cccc21 (stereo not drawn) [Compound C32] |  | did not exhibit significant activity | 
20 | O=S1(=O)C=CC2ON=C(c3cccnc3)C21 (stereo not drawn) [Compound D13] |  |  | anti-viability activity ([1]; 10 μM, 72 hours, 1% FCS): higher activity than did Compound D7
21 | O=C(NOCC1CC1)c1ccc(F)c(F)c1Nc1ccc(I)cc1Cl [PD184352] |  |  | viability, time course ([3]; 5 μM, all tested cell lines (Panc-1, AsPC-1, BxPC-3, Mia PaCa-2)): reduced the viability
22 | CCCS(=O)(=O)Nc1ccc(F)c(C(=O)c2c[nH]c3ncc(-c4ccc(Cl)cc4)cc23)c1F [PLX4032] |  |  | proliferation, time course ([3]; 1 μM, Ras-mutated AsPC-1 cells): to some extent; viability, time course ([3]; 1 μM, other Ras-transformed pancreatic cancer cells (Panc-1, Mia PaCa-2)): not affecting the viability

From patent US12286439B2, “Inhibitors of ERK nuclear translocation” (Yeda Research and Development Co. Ltd., priority 2018, dated 2025)
